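Grown in 96-well plates, cells were treated for 48 hours with each compound at five concentrations. Insufficient inhibition: endpoint recorded as highest concentration tested. The concentration for full growth arrest is given as TGI.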
Columns and labels:
Assay in all cases: NCI tumour cell line growth inhibition, 48 h
[1] = test system: HOP-62 NSCLC
[2] = test system: HCT-116 colon
[3] = test system: MALME-3M melanoma
[4] = test system: HOP-92 NSCLC
[5] = test system: HL-60(TB) leukemia
[6] = test system: MDA-N
[7] = test system: M14 melanoma
[8] = test system: OVCAR-8 ovarian
[9] = test system: SF-268 CNS
[10] = test system: NCI-H226 lung
[11] = test system: 786-0 renal
[12] = test system: UACC-257 melanoma
[13] = test system: SK-MEL-2 melanoma
[14] = test system: UO-31 renal
[15] = test system: ACHN renal
[16] = test system: TK-10 renal
[17] = test system: EKVX NSCLC
[18] = test system: CCRF-CEM leukemia
[19] = test system: RPMI-8226 leukemia
[20] = test system: SK-MEL-28 melanoma
[21] = test system: PC-3 prostate
[22] = test system: T-47D breast
[23] = test system: K-562 leukemia
[24] = test system: U251 CNS
[25] = test system: NCI-H522 lung
[26] = test system: DU-145 prostate
[27] = test system: MOLT-4 leukemia
[28] = test system: HCC-2998 colon
[29] = test system: SK-OV-3 ovarian
[30] = test system: NCI-H460 lung
[31] = test system: CAKI-1 renal
[32] = test system: OVCAR-4 ovarian
[33] = test system: A498 renal
[34] = test system: SK-MEL-5 melanoma
[35] = test system: COLO 205 colon
[36] = test system: HCT-15 colon
[37] = test system: SF-295 CNS
[38] = test system: SR leukemia
[39] = test system: SW-620 colon
[40] = test system: MDA-MB-231 breast
[41] = test system: KM12 colon
[42] = test system: SF-539 CNS
[43] = test system: SNB-75 CNS
[44] = test system: IGROV1 ovarian
[45] = test system: SNB-19 CNS
[46] = test system: HT29 colon
[47] = test system: HS 578T breast
[48] = test system: BT-549 breast
[49] = test system: OVCAR-5 ovarian
[50] = test system: NCI/ADR-RES ovarian
[51] = test system: UACC-62 melanoma
[52] = test system: SN12C renal
[53] = test system: OVCAR-3 ovarian
[54] = test system: MCF7 breast
[55] = test system: A549 NSCLC
[56] = test system: RXF 393 renal
[57] = test system: LOX IMVI melanoma
[58] = test system: NCI-H23 lung
[59] = test system: MDA-MB-435

Measured: TGI

C/C(=N\NC(=S)NC(C)C)c1nc2ncccc2[nH]1
98.7 µM: [51]
33.4 µM: [29]
52.7 µM: [8]
51.3 µM: [10]
> 64.2 µM: [1]
84.3 µM: [4]
69.7 µM: [47]
35.6 µM: [37]
44.9 µM: [14]
> 95.1 µM: [22]
> 76.3 µM: [25]
> 77.6 µM: [13]
> 89.1 µM: [31]
> 80.1 µM: [44]
73.8 µM: [16]
> 69.7 µM: [17]
> 85 µM: [42]
58.9 µM: [48]
> 66.7 µM: [43]
> 91.6 µM: [45]
not listed: [58] | [59]
> 100 µM: all other assays above

c1ccc([P+](CCNCCNCC[P+](c2ccccc2)(c2ccccc2)c2ccccc2)(c2ccccc2)c2ccccc2)cc1
not listed: [3] | [4] | [5] | [18] | [21] | [23] | [25] | [31] | [38] | [57]
> 100 µM: all other assays above
